# Measurements as given in US10266526B2, “Substituted 1,2,3-triazoles as SMYD inhibitors for treating cancer” (EPIZYME, INC., priority 2014, dated 2019).
# Target: SMYD3 (Homo sapiens (Human), UniProt Q9H7B4)
# Experiment: SMYD3 biochemical assay (SMYD3 enzyme assay on MEKK2 protein substrate, 3H-SAM scintillation proximity assay)
# Conditions: Table 1A; average of n = 1 to n = 50; read-out: SMYD3 Biochem IC50
# Method in brief: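 Native full-length human SMYD3, expressed in E. coli, was preincubated with compound for 30 min at room temperature in 25 mM Tris-Cl pH 8.0, 1 mM TCEP, 0.005% BSG and 0.005% Tween 20. ³H-SAM plus GST-MEKK2 then started the reaction. It was stopped with unlabeled SAM (100 uM final), and methylated MEKK2 was read by SPA.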
# Chain of SMYD3 (Q9H7B4 whole entry): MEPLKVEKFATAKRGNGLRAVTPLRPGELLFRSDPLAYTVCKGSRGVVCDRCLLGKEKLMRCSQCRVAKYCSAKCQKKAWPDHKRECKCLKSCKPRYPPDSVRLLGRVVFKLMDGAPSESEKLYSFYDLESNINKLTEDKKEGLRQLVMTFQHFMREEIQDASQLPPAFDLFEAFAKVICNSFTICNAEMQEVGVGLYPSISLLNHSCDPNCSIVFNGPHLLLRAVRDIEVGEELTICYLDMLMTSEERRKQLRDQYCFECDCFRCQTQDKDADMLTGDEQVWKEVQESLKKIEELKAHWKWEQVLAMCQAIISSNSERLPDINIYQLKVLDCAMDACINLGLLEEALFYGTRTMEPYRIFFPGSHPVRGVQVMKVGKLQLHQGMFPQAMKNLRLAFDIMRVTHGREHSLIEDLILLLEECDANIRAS
row,SMILES,IC50
1,"CCc1cnc(C(=O)NC(C)C2CCN(C(=O)[C@H](C)N)CC2)s1 (stereo partly drawn) [compound 552, N-(1-(1-(L-alanyl)piperidin-4-yl)ethyl)-5-ethylthiazole-2-carboxamide]",6.44 µM
2,"CC(NC(=O)c1cc(Cl)[nH]n1)C1CCN(C(=O)[C@H](C)N)CC1 (stereo partly drawn) [compound 527, N-(1-(1-(L-alanyl)piperidin-4-yl)ethyl)-5-chloro-1H-pyrazole-3-carboxamide]",> 50 µM
3,"CCc1nc(C(=O)N[C@H]2CC[C@H](N)CC2)n[nH]1 [compound 535, N-((1r,4r)-4-aminocyclohexyl)-5-ethyl-1H-1,2,4-triazole-3-carboxamide]",> 50 µM

# Other lines, results leading:
row,IC50,SMILES
1,> 50 µM,"N[C@H]1CC[C@H](NC(=O)c2n[nH]c(=O)[nH]2)CC1 [compound 531, N-((1r,4r)-4-aminocyclohexyl)-5-oxo-4,5-dihydro-1H-1,2,4-triazole-3-carboxamide]"
2,> 50 µM,"NCCC(=O)N[C@H]1CC[C@H](NC(=O)c2c[nH]cn2)CC1 [compound 537, N-((1r,4r)-4-(3-aminopropanamido)cyclohexyl)-1H-imidazole-4-carboxamide]"
3,> 50 µM,"Cc1[nH]cnc1C(=O)N[C@H]1CC[C@H](N)CC1 [compound 542, N-((1r,4r)-4-aminocyclohexyl)-5-methyl-1H-imidazole-4-carboxamide]"

# Same assay, conditions: read-out: SMYD3 Biochem IC50
row,SMILES,IC50
1,"N[C@H]1CC[C@H](NC(=O)c2ccc3[nH]ccc3c2)CC1 [compound 192, N-((1r,4r)-4-aminocyclohexyl)-1H-indole-5-carboxamide]",> 100 µM
2,"CC(NC(=O)c1ccnc(O)c1)C1CCN(C(=O)[C@H](C)N)CC1 (stereo partly drawn) [compound 249, N-(1-(1-(L-alanyl)piperidin-4-yl)ethyl)-2-hydroxyisonicotinamide]",65.9 µM
3,"N[C@H]1CC[C@H](NC(=O)c2cc[n+]([O-])cc2)CC1 [compound 210, 4-(((1r,4r)-4-aminocyclohexyl)carbamoyl)pyridine 1-oxide]",> 100 µM
4,"Cc1ncc(C(=O)NC(C)C2CCN(C(=O)[C@H](C)N)CC2)cn1 (stereo partly drawn) [compound 183, N-(1-(1-(L-alanyl)piperidin-4-yl)ethyl)-2-methylpyrimidine-5-carboxamide]",> 100 µM
5,"N[C@H]1CC[C@H](C(=O)Nc2ccc3c(c2)CC(=O)N3)CC1 [compound 428, (1r,4r)-4-amino-N-(2-oxoindolin-5-yl)cyclohexane-1-carboxamide]",30.6 µM
6,"CC(NC(=O)c1ccc(O)nc1)C1CCN(C(=O)[C@H](C)N)CC1 (stereo partly drawn) [compound 378, N-(1-(1-(L-alanyl)piperidin-4-yl)ethyl)-6-hydroxynicotinamide]",> 100 µM
7,"N[C@H]1CC[C@H](NC(=O)c2ccc3c(c2)CCCC3)CC1 [compound 204, N-((1r,4r)-4-aminocyclohexyl)-5,6,7,8-tetrahydronaphthalene-2-carboxamide]",47.4 µM
8,"N[C@H]1CC[C@H](NC(=O)[C@H]2C[C@H](O)CN2)CC1 [compound 435, (2R,4S)-N-((1r,4r)-4-aminocyclohexyl)-4-hydroxypyrrolidine-2-carboxamide]",> 100 µM
9,"CC(NC(=O)c1ccccn1)C1CCN(C(=O)[C@H](C)N)CC1 (stereo partly drawn) [compound 296, N-(1-(1-(L-alanyl)piperidin-4-yl)ethyl)picolinamide]",> 100 µM
10,"CC(NC(=O)c1cccc2c1OC(F)(F)O2)C1CCN(C(=O)[C@H](C)N)CC1 (stereo partly drawn) [compound 266, N-(1-(1-(L-alanyl)piperidin-4-yl)ethyl)-2,2-difluorobenzo[d][1,3]dioxole-4-carboxamide]",> 100 µM
11,"CC(NC(=O)c1cncnc1N)C1CCN(C(=O)[C@H](C)N)CC1 (stereo partly drawn) [compound 419, N-(1-(1-(L-alanyl)piperidin-4-yl)ethyl)-4-aminopyrimidine-5-carboxamide]",> 100 µM
12,"CC1=NN(c2ccc(C(=O)NC(C)C3CCN(C(=O)[C@H](C)N)CC3)cc2)C(=O)C1 (stereo partly drawn) [compound 218, N-(1-(1-(L-alanyl)piperidin-4-yl)ethyl)-4-(3-methyl-5-oxo-4,5-dihydro-1H-pyrazol-1-yl)benzamide]",77 µM
13,"NCCC(=O)N1CCC(CC(=O)N2CCC3NC(=O)CC3C2)CC1 (stereo not drawn) [compound 483, 5-(2-(1-(3-aminopropanoyl)piperidin-4-yl)acetyl)octahydro-2H-pyrrolo[3,2-c]pyridin-2-one]",10.2 µM
14,"CC(NC(=O)c1ccc2cc[nH]c2c1)C1CCN(C(=O)[C@H](C)N)CC1 (stereo partly drawn) [compound 368, N-(1-(1-(L-alanyl)piperidin-4-yl)ethyl)-1H-indole-6-carboxamide]",12.3 µM

# Other lines, results leading:
row,IC50,SMILES
1,> 100 µM,"NCCC(=O)N[C@H]1CC[C@H](NC(=O)c2cnc3ccccc3n2)CC1 [compound 373, N-((1r,4r)-4-(3-aminopropanamido)cyclohexyl)quinoxaline-2-carboxamide]"
2,13.4 µM,"NCCC(=O)N[C@H]1CC[C@H](NC(=O)c2ccc3[nH]ccc3c2)CC1 [compound 235, N-((1r,4r)-4-(3-aminopropanamido)cyclohexyl)-1H-indole-5-carboxamide]"
3,> 100 µM,"N[C@H]1CC[C@H](NC(=O)Cc2ccc(F)cc2)CC1 [compound 208, N-((1r,4r)-4-aminocyclohexyl)-2-(4-fluorophenyl)acetamide]"
4,> 100 µM,"NCCC(=O)N[C@H]1CC[C@H](NC(=O)c2cncnc2N)CC1 [compound 420, 4-amino-N-((1r,4r)-4-(3-aminopropanamido)cyclohexyl)pyrimidine-5-carboxamide]"
5,> 100 µM,"NCCC(=O)N[C@H]1CC[C@H](NC(=O)c2c[nH]c3ccccc23)CC1 [compound 391, N-((1r,4r)-4-(3-aminopropanamido)cyclohexyl)-1H-indole-3-carboxamide]"
6,> 100 µM,"NCCC(=O)N[C@H]1CC[C@H](NC(=O)Cn2ccnc2)CC1 [compound 366, N-((1r,4r)-4-(2-(1H-imidazol-1-yl)acetamido)cyclohexyl)-3-aminopropanamide]"
7,> 100 µM,"Cn1c(C(=O)N[C@H]2CC[C@H](N)CC2)cc2ccccc21 [compound 246, N-((1r,4r)-4-aminocyclohexyl)-1-methyl-1H-indole-2-carboxamide]"
8,31.6 µM,"Cc1nc2ccccc2c(C(=O)N[C@H]2CC[C@H](NC(=O)CCN)CC2)c1N [compound 478, 3-amino-N-((1r,4r)-4-(3-aminopropanamido)cyclohexyl)-2-methylquinoline-4-carboxamide]"
9,> 100 µM,"Cn1c(C(=O)N[C@H]2CC[C@H](NC(=O)CCN)CC2)cc2ccccc21 [compound 245, N-((1r,4r)-4-(3-aminopropanamido)cyclohexyl)-1-methyl-1H-indole-2-carboxamide]"
10,> 50 µM,"Cc1cc2cc(C(=O)N[C@H]3CC[C@H](N)CC3)ccc2[nH]1 [compound 520, N-((1r,4r)-4-aminocyclohexyl)-2-methyl-1H-indole-5-carboxamide]"
11,> 100 µM,"Nc1cc(C(=O)N[C@H]2CC[C@H](N)CC2)ccn1 [compound 322, 2-amino-N-((1r,4r)-4-aminocyclohexyl)isonicotinamide]"
12,> 100 µM,"NCCC(=O)N[C@H]1CC[C@H](NC(=O)Cc2ccc(F)cc2)CC1 [compound 207, 3-amino-N-((1r,4r)-4-(2-(4-fluorophenyl)acetamido)cyclohexyl)propanamide]"
13,> 100 µM,"N[C@H]1CC[C@H](NC(=O)c2ncc[nH]2)CC1 [compound 502, N-((1r,4r)-4-aminocyclohexyl)-1H-imidazole-2-carboxamide]"

# Same assay, conditions: read-out: SMYD3 Biochem IC50 (μM)*
row,SMILES,IC50
1,"COc1cc(C(=O)NC(C)C2CCN(C(=O)[C@H](C)N)CC2)cc2c1OCC(=O)N2 (stereo partly drawn) [compound 98, N-(1-(1-(L-alanyl)piperidin-4-yl)ethyl)-8-methoxy-3-oxo-3,4-dihydro-2H-benzo[b][1,4]oxazine-6-carboxamide]",151 µM
2,"CCc1ncc(C(=O)NC(c2ccccc2)C2CCNCC2)s1 (stereo not drawn) [compound 60, 2-ethyl-N-(phenyl(piperidin-4-yl)methyl)thiazole-5-carboxamide]",150 µM
3,"CC(NC(=O)c1ncccn1)C1CCN(C(=O)[C@H](C)N)CC1 (stereo partly drawn) [compound 144, N-(1-(1-(L-alanyl)piperidin-4-yl)ethyl)pyrimidine-2-carboxamide]",> 100 µM
4,"CC(CC(=O)NC(c1ccccc1)C1CCNCC1)C1CC1 (stereo not drawn) [compound 63, 3-cyclopropyl-N-(phenyl(piperidin-4-yl)methyl)butanamide]",131 µM

# Other lines, results leading:
row,IC50,SMILES
1,51 µM,"N[C@H]1CC[C@H](NC(=O)c2cncc(Br)c2)CC1 [compound 116, N-((1r,4r)-4-aminocyclohexyl)-5-bromonicotinamide]"
2,3.4 µM,"CN(C(=O)CCN)C1CCC(NC(=O)c2ccc3c(c2)CC(=O)N3)CC1 (stereo not drawn) [compound 178, N-(4-(3-amino-N-methylpropanamido)cyclohexyl)-2-oxoindoline-5-carboxamide]"
3,129 µM,"Cn1nc(O)cc1C(=O)N[C@H]1CC[C@H](N)CC1 [compound 67, N-((1r,4r)-4-ammocyclohexyl)-3-hydroxy-1-methyl-1H-pyrazole-5-carboxamide]"
4,184 µM,"CCc1ncc(C(=O)N[C@H]2CC[C@H](N)CC2)s1 [compound 59, N-((1r,4r)-4-aminocyclohexyl)-2-ethylthiazole-5-carboxamide]"
5,87 µM,"N[C@H]1CC[C@H](NC(=O)c2cncc(Cl)c2)CC1 [compound 117, N-((1r,4r)-4-aminocyclohexyl)-5-chloronicotinamide]"
6,> 100 µM,"N[C@H]1CC[C@H](NC(=O)Cc2c[nH]c3ccccc23)CC1 [compound 168, N-((1r,4r)-4-aminocyclohexyl)-2-(1H-indol-3-yl)acetamide]"
7,9.76 µM,"N[C@H]1CC[C@H](NC(=O)c2ccc3[nH]c(=O)oc3c2)CC1 [compound 90, N-((1r,4r)-4-aminocyclohexyl)-2-oxo-2,3-dihydrobenzo[d]oxazole-6-carboxamide]"
8,0.63 µM,"NCC(=O)N[C@H]1CC[C@H](NC(=O)c2ccc3c(c2)CC(=O)N3)CC1 [compound 174, N-((1r,4r)-4-(2-aminoacetamido)cyclohexyl)-2-oxoindoline-5-carboxamide]"
